Data taken from the Kinase Knowledgebase extract (Sharma et al. 2016).

Legend:
MAPK14 (Balb/c mice) = assay: Inhibition of TNF-alpha Release in Balb/c Mice; conditions: dose or concentration not given here
MAPK14 (human) = MAPK14 (human) (UniProt Q16539); assay: Inhibition of TNF-alpha Release from PBMC
Chain of MAPK14 (human) (Q16539 whole entry, looked up): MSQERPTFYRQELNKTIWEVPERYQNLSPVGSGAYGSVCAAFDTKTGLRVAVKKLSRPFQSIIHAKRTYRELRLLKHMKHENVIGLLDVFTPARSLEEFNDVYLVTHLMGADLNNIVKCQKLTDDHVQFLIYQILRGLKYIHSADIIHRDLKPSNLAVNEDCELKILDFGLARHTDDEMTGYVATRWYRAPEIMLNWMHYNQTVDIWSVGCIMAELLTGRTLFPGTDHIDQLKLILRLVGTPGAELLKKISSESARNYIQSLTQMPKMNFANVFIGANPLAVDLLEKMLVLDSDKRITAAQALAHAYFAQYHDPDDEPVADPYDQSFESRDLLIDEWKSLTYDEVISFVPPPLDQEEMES

Row | IC50 (MAPK14 (human)) | SMILES | inhibition (MAPK14 (Balb/c mice))
1 |  | COc1nccc(-c2c(-c3ccccc3)nc3nc(N)ccn23)n1 | 87%
2 | 3410 nM | CS(=O)(=O)c1nccc(-c2c(-c3ccccc3)nc3nc(N)ccn23)n1 | 
3 | 55 nM | Nc1ccn2c(-c3ccncc3)c(-c3ccccc3)nc2n1 | 100%
4 |  | Nc1ccn2c(-c3ccnc(NCc4ccccc4)c3)c(-c3ccc(F)cc3)nc2n1 | 42%
5 | 37 nM | CSc1nccc(-c2c(-c3ccc(F)cc3)nc3nc(N)ccn23)n1 | 68%
6 | 55 nM | Nc1ccn2c(-c3ccncc3)c(-c3cccc(F)c3)nc2n1 | 100%
7 | 49 nM | Nc1ccn2c(-c3ccncc3)c(-c3ccc(F)cc3)nc2n1 | 100%
8 | 21 nM | Nc1ccn2c(-c3ccncc3)c(-c3ccc(F)c(Cl)c3)nc2n1 | 100%
9 | 1 nM | C[C@H](Nc1nccc(-c2c(-c3ccc(F)cc3)nc3nc(N)ccn23)n1)C1CCCCC1 | 74%
10 | 4 nM | Nc1ccn2c(-c3ccnc(NCc4ccccc4)c3)c(-c3cccc(C(F)(F)F)c3)nc2n1 | 19%
11 | 27 nM | CSc1nccc(-c2c(-c3cccc(C(F)(F)F)c3)nc3nc(N)ccn23)n1 | 38%
12 | 162 nM | Nc1ccn2c(-c3ccncc3)c(-c3cccc(Cl)c3)nc2n1 | 47%
13 | 8 nM | Nc1ccn2c(-c3ccnc(N4CCCCC4)n3)c(-c3ccccc3)nc2n1 | 63%
14 | 0.5 nM | C[C@H](Nc1nccc(-c2c(-c3cccc(C(F)(F)F)c3)nc3nc(N)ccn23)n1)c1ccccc1 | 97%
15 |  | CSc1nccc(-c2c(-c3ccccc3)nc3nc(N)ccn23)n1 | 23%
16 | 333 nM | Nc1ccn2c(-c3ccnc4ccccc34)c(-c3ccc(F)cc3)nc2n1 | 26%
17 | 0.4 nM | C[C@H](Nc1nccc(-c2c(-c3ccccc3)nc3nc(N)ccn23)n1)c1ccccc1 | 100%
18 | 278 nM | Nc1ccn2c(-c3ccncn3)c(-c3cccc(C(F)(F)F)c3)nc2n1 | 85%
19 |  | Nc1ccn2c(-c3ccncn3)c(-c3ccccc3)nc2n1 | 73%
20 | 14 nM | COc1ccc(CNc2nccc(-c3c(-c4ccccc4)nc4nc(N)ccn34)n2)cc1 | 
21 | 520 nM | CS(=O)(=O)c1nccc(-c2c(-c3cccc(C(F)(F)F)c3)nc3nc(N)ccn23)n1 | 10%
22 |  | C[C@H](Nc1cc(-c2c(-c3ccc(F)cc3)nc3nc(N)ccn23)ccn1)c1ccccc1 | 97%
23 | 35 nM | Nc1ccn2c(-c3ccncc3)c(-c3cccc(C(F)(F)F)c3)nc2n1 | 99%
24 | 10 nM | CSc1nccc(-c2c(-c3cccc(F)c3)nc3nc(N)ccn23)n1 | 51%
25 | 199 nM | Nc1ccn2c(-c3ccncn3)c(-c3ccc(F)cc3)nc2n1 | 91%
